Measurements from patent US12383500B2, “Nanoliposome compositions and methods of using the same” (United States Government as represented by the Department …, priority 2018, dated 2025).

Columns and labels:
human umbilical vein ECs [1] = experiment: Endothelial cell immune activation (gene and protein expression of IL-8, IL-6, ICAM-1, PAI-1); format: cell-based
Protocol: (§1) Endothelial cell immune activation. Primary culture human umbilical vein ECs (passages 4-8, Lonza, Walkersville MD) were seeded into 6-well plates and grown to full confluence. Human umbilical vein ECs have been extensively used to study vascular cell behavior in neurodegenerative disease studies such as AD and VaD as they show similarity in properties as brain ECs, including Aβ metabolism^23, 24, expression of tight junction proteins^25 and metabolic interactions with neural cells^26. ECs were exposed to 20 hours of vehicle or medin (5 μM, dose chosen as this was the mean medin concentration found in human vascular tissue) without or with NLGM1 (300 μM). Additional replicates were also treated with NLGM1 (300 μM) plus transcription factor nuclear factor erythroid 2-related factor 2 (Nrf2) inhibitor brusatol (1 μM). EC immune activation was assessed using gene and protein expressions of inflammation-related cytokines/chemokines interleukin (IL)-8, IL-6, intercellular adhesion molecule (ICAM)-1) and plasminogen activator inhibitor (PAI)-1 (primers from IDT DNA Technologies, Coralville IL)^6, 16. Following lysis, RNA was extracted and converted to cDNA using Aurum Total RNA Mini Kit and iScript cDNA synthesis kit (Bio-Rad Laboratories, Coralville IA) with β-actin as reference normalization gene normalization. […] The conditioned cell media from treated ECs were analyzed for IL-8 and IL-6 protein by enzyme linked immunosorbent assay (ELISA) using DuoSet kit (R&D Systems, Minneapolis MN). ICAM-1 protein was measured from whole cell lysate using ICAM-1 ELISA kit (R&D Systems). PAI-1 and phosphorylated NFκB (phospho-NFκB p65, Ser536, 93H1) proteins were measured using Western blot (1:500, Cell Signaling Technology, Danvers MA).

Nrf2 = experiment: Nuclear Nrf2, HO-1 and NQO1 protein in ECs, Western blot; format: cell-based, human
Protocol: Activated Nrf-2 protein was measured by separating the nuclear from cytosolic components using NE-PER Nuclear and Cytoplasmic Extraction kit (Thermo Scientific, Rockford IL) and using anti-Nrf2 primary antibody (1:500, Cell Signaling) on nuclear proteins using Western blot with tubulin as loading control. Heme oxygenase (HO)-1 and NAD(P)H Quinone dehydrogenase 1 (NQO1) proteins were measured from whole cell lysates using anti-HO-1 (1:1000, Cell Signaling Technology) and anti-NQO1 (1:1000, Cell Signaling) primary antibodies.

human umbilical vein ECs [2] = experiment: Endothelial cell oxidative stress (superoxide, dihydroethidium fluorescence); format: cell-based
human umbilical vein ECs [3] = format: cell-based; details: medin + NLGM1 + brusatol (1 μM)
[4] = system: human adipose and leptomeningeal arterioles; experiment: Endothelial function of human arterioles exposed to medin; details: medin 1 μM; Aβ42 0.5 μM
NFκB = NFκB activation (phosphorylated NFκB) in ECs, Western blot; format: cell-based, human; details: post-exposure to medin
Protocol: as §1

Human primary astrocytes = experiment: Astrocyte monoculture IL-8 production; format: cell-based; details: astrocytes exposed 20 hours to conditioned media from medin (5 μM)-treated ECs
Protocol: Astrocyte monoculture. Human primary astrocytes (passage 3, Gibco, Madison WI) were seeded in gelatin matrix (4×10^4 cells/cm^2) coated plates, allowed to attach overnight and exposed for 20 hours to vehicle, medin (5 μM), conditioned media from vehicle-treated ECs (10% vol/vol exchange) or conditioned media from medin (5 μM)-treated ECs. Conditioned media IL-8 were measured by ELISA.

[5] = system: Human primary astrocytes with human umbilical vein ECs; experiment: 3D chip astrocyte and endothelial cell coculture IL-8; format: cell-based; details: medin treated chips with ECs compared to medin treated chips without ECs; 20 hours
Description: Microfluidic chip fabrication and 3D chip astrocyte and endothelial cell coculture. The microfluidic platform was fabricated in polydimethylsiloxane (PDMS) using standard SU-8 photolithography and replica molding technique, consisting of two side channels for seeding of endothelial cells (ECs) and a central region for astrocyte culture. The dimensions of the side channels' (length, width and height, are 4 mm, 250 μm and 200 μm respectively. The width of the 3D central region is 2 mm Elliptical micro-posts were localized within the central tissue region (500 um width, 100 um height) with specific micro-post spacing to optimize alignment of the astrocytes, while maintaining cellular connectivity and paracrine signaling. Creation of the master silicon wafer through photolithography was executed through spin-coating of SU-8 on a wafer to a height of 200 μm. The wafer was soft-baked, then exposed to UV through a transparent photomask with the chip design. After post-baking, the developed wafer was used as the substrate for soft lithography with PDMS replica molding. A PDMS base: curing agent ratio of 10:1 was used. Then, the PDMS channels were bonded to glass slides through oxygen plasma. […]
Human umbilical vein ECs were seeded into the side channels (2×10^6 cells/mL in EC media) overnight. […] Conditioned media IL-8 were measured using ELISA.

[6] = system: adipose arterioles exposed to amyloid LC proteins; experiment: Endothelial function (max response to acetylcholine) of adipose arterioles exposed to amyloid LC proteins; design: species or system human; details: NLs conjugated with clusterin (300 ng/mL), control 91.6±2%
Protocol: Attempts to formulate NLs (cholesterol and phosphatidylcholine) that are conjugated with clusterin (300 ng/mL), both non-covalently as well as covalently through PEGylation, was successful.

[7] = system: adipose arterioles exposed to amyloid LC proteins; details: LC from AL light chain amyloidosis patients; cited from earlier work
[8] = medin + NLGM1 + brusatol (1 μM)
[9] = ECs 20 hours, medin 5 μM without or with co-treatment
[10] = ECs 20 hours, medin 5 μM without or with co-treatment, ELISA of conditioned media

**Q.** For brusatol, which “protective effect of NLGM1 against medin-induced EC immune activation” value (human umbilical vein ECs [1]; medin + NLGM1 + brusatol (1 μM), FIG. 8H-K) is on record?
**A.** did not abolish

**Q.** What about the “increase in HO-1 by NLGM1 co-treatment with medin” value (Nrf2; [8]) of the same molecule?
**A.** abolished

**Q.** What about the “increase in NQO1 by NLGM1 co-treatment with medin” value (Nrf2; [8]) of the same molecule?
**A.** abolished

**Q.** What about the “protective effect of NLGM1 on medin-induced superoxide production” value (human umbilical vein ECs [2]; [8]) of the same molecule?
**A.** abolished

**Q.** What about the “protective effect of NLGM1 in terms of cell viability” value (human umbilical vein ECs [3]) of the same molecule?
**A.** reversed

**Q.** For Aβ42: beta amyloid peptide, which “endothelial and smooth muscle dysfunction compared to control response” value [4] is on record?
**A.** caused endothelial, but not smooth muscle dysfunction

**Q.** With “medin: recombinant 50-amino acid amyloid peptide, cleavage product of milk fat globule-EGF factor 8 protein” as the molecule, how does the “EC ICAM-1 gene expression” value (human umbilical vein ECs [1]; [9]) read?
**A.** increased

**Q.** And the “EC IL-6 gene expression” value (human umbilical vein ECs [1]; [9])?
**A.** increased

**Q.** And the “EC IL-8 gene expression” value (human umbilical vein ECs [1]; [9])?
**A.** increased

**Q.** And the “EC PAI-1 gene expression” value (human umbilical vein ECs [1]; [9])?
**A.** increased

**Q.** And the “EC IL-6 protein expression” value (human umbilical vein ECs [1]; [10])?
**A.** increased

**Q.** And the “EC IL-8 protein expression” value (human umbilical vein ECs [1]; [10])?
**A.** increased

**Q.** What about the “EC ICAM-1 protein expression” value (human umbilical vein ECs [1]; ECs 20 hours, medin 5 μM without or with co-treatment, ELISA of whole cell lysate) of the same molecule?
**A.** increased

**Q.** And the “EC PAI-1 protein expression” value (human umbilical vein ECs [1]; ECs 20 hours, medin 5 μM without or with co-treatment, Western blot)?
**A.** increased

**Q.** What about the “nuclear Nrf2 (Nrf2 activation)” value (Nrf2; ECs treated with the substance alone) of the same molecule?
**A.** no accompanying Nrf2 activation

**Q.** What about the EC superoxide production (human umbilical vein ECs [2]; ECs 20 hours, medin without or with NLGM1) of the same molecule?
**A.** increased

**Q.** What about the “NFκB activation (phosphorylated NFκB) in ECs, peak” value (NFκB) of the same molecule?
**A.** 1 h

**Q.** What about the “NFκB activation (phosphorylated NFκB) in ECs, persistence” value (NFκB) of the same molecule?
**A.** 20 h

**Q.** What about the “NFκB activation (phosphorylated NFκB) in ECs, start” value (NFκB) of the same molecule?
**A.** 15 min

**Q.** And the “astrocyte IL-8 production” value (Human primary astrocytes)?
**A.** significant increase

**Q.** And the “astrocyte media IL-8” value [5]?
**A.** significantly higher

**Q.** What about the “endothelial and smooth muscle dysfunction compared to control response” value [4] of the same molecule?
**A.** caused endothelial, but not smooth muscle dysfunction

**Q.** Which “EC ICAM-1 gene expression” value (human umbilical vein ECs [1]; [9]) does the source give for `[O-][S+](c1ccccc1)c1ccc2nnnn2n1` (stereo not shown) [RO106-9920, reference compound] here?
**A.** abolished

**Q.** And the “EC IL-6 gene expression” value (human umbilical vein ECs [1]; [9])?
**A.** abolished

**Q.** And the “EC IL-8 gene expression” value (human umbilical vein ECs [1]; [9])?
**A.** abolished

**Q.** And the “EC PAI-1 gene expression” value (human umbilical vein ECs [1]; [9])?
**A.** abolished

**Q.** What does the source list for “free clusterin: 80-kDa chaperone glycoprotein; sCLU isoform, commercial human recombinant clusterin protein”?
**A.** max response to acetylcholine [6]: 86.4±3.9%; endothelial dysfunction in human arterioles exposed to amyloidogenic light chain (LC) proteins [7]: reversed
